According to publication PMC11094580 (EFSA Journal, 2024):
Where two headings read alike, the source gives them in different places.

Key:
Wistar rats [1] = test: In vivo micronucleus assay in peripheral blood; parameters: species or system rat; conditions: positive control, 10 mg/kg bw, 48 h before sacrifice
Wistar rats [2] = test: In vivo comet assay in liver and duodenum; parameters: species or system rat; conditions: positive control 200 mg/kg bw
[3] = ref Gardana et al. (2007), cited from earlier work
Clostridium orbiscindens = conditions: ref Schoefer et al. (2003); cited from earlier work
[4] = system: Intestinal bacteria isolated from human faeces; conditions: 5 mg flavonoids in 50 mL broth, 2 days, anaerobic; ref Kim et al. (1998); cited from earlier work

For O=P1(N(CCCl)CCCl)NCCCO1 (stereo not shown) [CPA, cyclophosphamide, reference compound], the “% MNPCE frequency” value (Wistar rats [1]) was 0.93 ± 0.16%.

With CCOS(C)(=O)=O [EMS, ethyl methanesulfonate] the “% tail intensity” value (Wistar rats [2]; duodenum) was 19.67% and the “% tail intensity” value (Wistar rats [2]; liver) was 18.30%.

For COc1ccc([C@@H]2CC(=O)c3c(O)cc(O)cc3O2)cc1O [hesperetin, reference compound], the “mean C max (plasma hesperetin)” value ([3]; BOJ 150 mL, 51 mg hesperetin) is given as 43 ng/mL and the “mean C max (plasma hesperetin)” value ([3]; BOJ 300 mL, 102 mg hesperetin) is given as 80 ng/mL.

In the case of C[C@@H]1O[C@@H](O[C@H]2[C@H](Oc3cc(O)c4c(c3)O[C@H](c3ccc(O)cc3)CC4=O)O[C@H](CO)[C@@H](O)[C@@H]2O)[C@H](O)[C@H](O)[C@H]1O [naringin, reference compound], the “Results: conversion by C. orbiscindens” value (Clostridium orbiscindens) is listed as “did not convert” and the “Results: bacterial metabolism” value [4] is listed as “metabolised to naringenin at early time”.
